For this experiment, the target named is PD-L1 His protein / PD-1 Fc protein (Homo sapiens, UniProt Q9NZQ7). Briefly: HTRF Assay (PD-1/PD-L1 interaction). Type of experiment: binding. The conditions noted are these: PD-L1 His 6 nM, PD-1 Fc 6 nM. In short, it runs like this: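 Compounds tested from 20 μM down to 0.001 μM (3-fold) against 6 nM PD-L1 His and 6 nM PD-1 Fc, 15 min room temperature incubation. Detection after 1 h at room temperature with Tb cryptate anti-6HIS and XL665 anti-human IgG reagents (mixture at 0.35 nM and 6.7 nM), HTRF signal.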
Chain of PD-L1 His protein / PD-1 Fc protein (Q9NZQ7 19-238 limits assumed): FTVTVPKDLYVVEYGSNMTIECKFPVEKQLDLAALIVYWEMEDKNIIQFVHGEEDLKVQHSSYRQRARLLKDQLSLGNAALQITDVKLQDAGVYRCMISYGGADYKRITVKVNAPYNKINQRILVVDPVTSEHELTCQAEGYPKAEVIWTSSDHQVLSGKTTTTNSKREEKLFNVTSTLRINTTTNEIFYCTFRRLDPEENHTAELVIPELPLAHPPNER
A general note: In TR-FRET formats the signal depends on donor and acceptor labels being close together.
`COc1c(CNC[C@@H]2CCC(=O)N2)ccc2nc(-c3cccc(-c4cccc(-c5ccn6c(=O)c(CNC[C@@H]7CCC(=O)N7)cnc6c5)c4Cl)c3Cl)ccc12` [Example 176, 8-(2,2′-Dichloro-3′-(5-methoxy-6-(((((S)-5-oxopyrrolidin-2-yl)methyl)amino)methyl)quinolin-2-yl)-[1,1′-biphenyl]-3-yl)-3-(((((S)-5-oxopyrrolidin-2-yl)methyl)amino)methyl)-4H-pyrido[1,2-a]pyrimidin-4-one] gave an IC50 of 250 nM.
With `COc1nc(/C=C2\CCc3c2cccc3-c2cccc(-c3ccn4c(=O)c(CNC[C@@H]5CCC(=O)N5)cnc4c3)c2Cl)c(Cl)cc1CNC[C@@H]1CCC(=O)N1` [Example 177, 8-(2-Chloro-3-((E)-1-((3-chloro-6-methoxy-5-(((((S)-5-oxopyrrolidin-2-yl)methyl)amino)methyl)pyridin-2-yl)methylene)-2,3-dihydro-1H-inden-4-yl)phenyl)-3-(((((S)-5-oxopyrrolidin-2-yl)methyl)amino)methyl)-4H-pyrido[1,2-a]pyrimidin-4-one] the figure was 5 nM.
With `COc1nc(-c2cccc(-c3cccc(-c4ccn5c(=O)c(CNC[C@@H]6CCC(=O)N6)cnc5c4)c3Cl)c2Cl)ccc1C1=NCC(O)CN1` (stereo partly drawn) [Example 178, 8-(2,2′-Dichloro-3′-(5-(5-hydroxy-1,4,5,6-tetrahydropyrimidin-2-yl)-6-methoxypyridin-2-yl)-[1,1′-biphenyl]-3-yl)-3-(((((S)-5-oxopyrrolidin-2-yl)methyl)amino)methyl)-4H-pyrido[1,2-a]pyrimidin-4-one] the figure was 3.5 nM; with `COc1nc(-c2cccc(-c3cccc(-c4ccn5c(=O)c(CNC[C@H](C)O)c(C)nc5c4)c3Cl)c2Cl)ccc1CNC[C@H](C)O` [Example 181, 8-(2,2′-Dichloro-3′-(5-((((S)-2-hydroxypropyl)amino)methyl)-6-methoxypyridin-2-yl)-[1,1′-biphenyl]-3-yl)-3-((((S)-2-hydroxypropyl)amino)methyl)-2-methyl-4H-pyrido[1,2-a]pyrimidin-4-one], 3.8 nM.
Compound `COc1nc(-c2cccc(-c3cccc(-c4ccn5c(=O)c(CNCCC(=O)O)cnc5c4)c3Cl)c2Cl)ccc1CNC[C@@H]1CCC(=O)N1` [Example 182, (S)-3-(((8-(2,2′-Dichloro-3′-(6-methoxy-5-((((5-oxopyrrolidin-2-yl)methyl)amino)methyl)pyridin-2-yl)-[1,1′-biphenyl]-3-yl)-4-oxo-4H-pyrido[1,2-a]pyrimidin-3-yl)methyl)amino)propanoic acid] yielded an IC50 of 0.1 nM.
With `COc1nc(-c2cccc(-c3cccc(-c4cc(C)n5c(=O)c(CNC[C@@H]6CCC(=O)N6)cnc5c4)c3Cl)c2Cl)ccc1CNC[C@@H]1CCC(=O)N1` [Example 183, 8-(2,2′-Dichloro-3′-(6-methoxy-5-(((((S)-5-oxopyrrolidin-2-yl)methyl)amino)methyl)pyridin-2-yl)-[1,1′-biphenyl]-3-yl)-6-methyl-3-(((((S)-5-oxopyrrolidin-2-yl)methyl)amino)methyl)-4H-pyrido[1,2-a]pyrimidin-4-one] the figure was 44 nM; with `COc1nc(-c2cccc(-c3cccc(-c4ccn5c(=O)c(CNC(C)(C)C(=O)O)cnc5c4)c3Cl)c2Cl)ccc1CNC[C@@H]1CCC(=O)N1` [Example 184, (S)-2-(((8-(2,2′-Dichloro-3′-(6-methoxy-5-((((5-oxopyrrolidin-2-yl)methyl)amino)methyl)pyridin-2-yl)-[1,1′-biphenyl]-3-yl)-4-oxo-4H-pyrido[1,2-a]pyrimidin-3-yl)methyl)amino)-2-methylpropanoic acid], 0.1 nM.
With `COc1nc(-c2cccc(-c3cccc(-c4ccn5c(=O)c(CNC[C@H](C)O)cnc5c4)c3Cl)c2Cl)ccc1CNC[C@H](C)O` [Example 185, 8-(2,2′-Dichloro-3′-(5-((((S)-2-hydroxypropyl)amino)methyl)-6-methoxypyridin-2-yl)-[1,1′-biphenyl]-3-yl)-3-((((S)-2-hydroxypropyl)amino)methyl)-4H-pyrido[1,2-a]pyrimidin-4-one], the IC50 was found to be 1.2 nM.
In the case of `COc1nc(-c2cccc(-c3cccc(-c4ccn5c(=O)c(CNC[C@@H](C)O)cnc5c4)c3Cl)c2Cl)ccc1CNC[C@@H](C)O` [Example 186, 8-(2,2′-Dichloro-3′-(5-((((R)-2-hydroxypropyl)amino)methyl)-6-methoxypyridin-2-yl)-[1,1′-biphenyl]-3-yl)-3-((((R)-2-hydroxypropyl)amino)methyl)-4H-pyrido[1,2-a]pyrimidin-4-one], the IC50 was 6.4 nM.
Next, `COc1nc(-c2cccc(-c3cccc(-c4ccn5c(=O)c(CN(C)CC(=O)O)cnc5c4)c3Cl)c2Cl)ccc1CNC[C@@H]1CCC(=O)N1` [Example 187, (S)—N-((8-(2,2′-Dichloro-3′-(6-methoxy-5-((((5-oxopyrrolidin-2-yl)methyl)amino)methyl)pyridin-2-yl)-[1,1′-biphenyl]-3-yl)-4-oxo-4H-pyrido[1,2-a]pyrimidin-3-yl)methyl)-N-methylglycine]: 0.1 nM; `COc1nc(-c2cccc(-c3cccc(-c4ccn5c(=O)c(CN6CC(C(=O)O)C6)cnc5c4)c3Cl)c2Cl)ccc1CNCCO` [Example 188, 1-((8-(2,2′-Dichloro-3′-(5-(((2-hydroxyethyl)amino)methyl)-6-methoxypyridin-2-yl)-[1,1′-biphenyl]-3-yl)-4-oxo-4H-pyrido[1,2-a]pyrimidin-3-yl)methyl)azetidine-3-carboxylic acid]: 0.1 nM; `COc1nc(-c2cccc(-c3cccc(-c4ccn5c(=O)c(CNCC(=O)O)cnc5c4)c3Cl)c2Cl)ccc1CNC[C@@H]1CCC(=O)N1` [Example 189, (S)-((8-(2,2′-Dichloro-3′-(6-methoxy-5-((((5-oxopyrrolidin-2-yl)methyl)amino)methyl)pyridin-2-yl)-[1,1′-biphenyl]-3-yl)-4-oxo-4H-pyrido[1,2-a]pyrimidin-3-yl)methyl)glycine]: 0.1 nM.
For `COc1nc(-c2cccc(-c3cccc(-c4ccn5c(=O)c(CN(C)[C@@H](C)C(=O)O)cnc5c4)c3Cl)c2Cl)ccc1CNC[C@@H]1CCC(=O)N1` [Example 190, N-((8-(2,2′-Dichloro-3′-(6-methoxy-5-(((((S)-5-oxopyrrolidin-2-yl)methyl)amino)methyl)pyridin-2-yl)-[1,1′-biphenyl]-3-yl)-4-oxo-4H-pyrido[1,2-a]pyrimidin-3-yl)methyl)-N-methyl-L-alanine], the 50% inhibitory concentration (IC50) was 0.1 nM. That is a sub-nanomolar value.
Take `COc1nc(-c2cccc(-c3cccc(-c4ccn5c(=O)c(CN[C@@H](CO)C(=O)O)cnc5c4)c3Cl)c2Cl)ccc1CNCCO` [Example 191, ((8-(2,2′-Dichloro-3′-(5-(((2-hydroxyethyl)amino)methyl)-6-methoxypyridin-2-yl)-[1,1′-biphenyl]-3-yl)-4-oxo-4H-pyrido[1,2-a]pyrimidin-3-yl)methyl)-L-serine]: the IC50 worked out at 0.1 nM.
Next, `COC(=O)[C@H]1CCN(Cc2cnc3cc(-c4cccc(-c5cccc(-c6ccc(CNC[C@@H]7CCC(=O)N7)c(OC)n6)c5Cl)c4Cl)ccn3c2=O)C1` [Example 192, (S)-Methyl 1-((8-(2,2′-dichloro-3′-(6-methoxy-5-(((((S)-5-oxopyrrolidin-2-yl)methyl)amino)methyl)pyridin-2-yl)-[1,1′-biphenyl]-3-yl)-4-oxo-4H-pyrido[1,2-a]pyrimidin-3-yl)methyl)pyrrolidine-3-carboxylate]: 0.8 nM; `COc1nc(-c2cccc(-c3cccc(-c4ccn5c(=O)c(CNC[C@H](C)O)c(C)nc5c4)c3Cl)c2Cl)ccc1CNC[C@@H]1CCC(=O)N1` [Example 193, 8-(2,2′-Dichloro-3′-(6-methoxy-5-(((((S)-5-oxopyrrolidin-2-yl)methyl)amino)methyl)pyridin-2-yl)-[1,1′-biphenyl]-3-yl)-3-((((S)-2-hydroxypropyl)amino)methyl)-2-methyl-4H-pyrido[1,2-a]pyrimidin-4-one]: 0.1 nM.
As for `COc1nc(-c2cccc(-c3cccc(-c4ccc5c(OC)c(CNC[C@@H]6CCC(=O)N6)cc(Cl)c5n4)c3Cl)c2Cl)ccc1CNC[C@@H]1CCC(=O)N1` [Example 194, (S)-5-((((8-Chloro-2-(2,2′-dichloro-3′-(6-methoxy-5-(((((S)-5-oxopyrrolidin-2-yl)methyl)amino)methyl)pyridin-2-yl)-[1,1′-biphenyl]-3-yl)-5-methoxyquinolin-6-yl)methyl)amino)methyl)pyrrolidin-2-one], the IC50 worked out at 26 nM.
With `COc1nc(-c2cccc(-c3cccc(-c4ccn5c(=O)c(CNC[C@@H](C)O)cnc5c4)c3Cl)c2Cl)ccc1CNC[C@H](C)O` [Example 195, 8-(2,2′-Dichloro-3′-(5-((((S)-2-hydroxypropyl)amino)methyl)-6-methoxypyridin-2-yl)-[1,1′-biphenyl]-3-yl)-3-((((R)-2-hydroxypropyl)amino)methyl)-4H-pyrido[1,2-a]pyrimidin-4-one] the figure was 2.5 nM.
The compound `COc1nc(-c2cccc(-c3cccc(-c4ccn5c(=O)c(CNC[C@H](C)O)cnc5c4)c3Cl)c2Cl)ccc1CNC[C@@H](C)O` [Example 196, 8-(2,2′-Dichloro-3′-(5-((((R)-2-hydroxypropyl)amino)methyl)-6-methoxypyridin-2-yl)-[1,1′-biphenyl]-3-yl)-3-((((S)-2-hydroxypropyl)amino)methyl)-4H-pyrido[1,2-a]pyrimidin-4-one] gave an IC50 of 2.8 nM.
For the compound `COc1nc(-c2cccc(-c3cccc(-c4ccn5c(=O)c(CNC[C@@H]6CCC(=O)N6)cnc5c4)c3Cl)c2Cl)ccc1CNC[C@H](C)O` [Example 197, 8-(2,2′-Dichloro-3′-(5-((((S)-2-hydroxypropyl)amino)methyl)-6-methoxypyridin-2-yl)-[1,1′-biphenyl]-3-yl)-3-(((((S)-5-oxopyrrolidin-2-yl)methyl)amino)methyl)-4H-pyrido[1,2-a]pyrimidin-4-one], the IC50 was determined as 0.2 nM.

Usually IC50 stands for the concentration at which inhibition is half-maximal. Read a low IC50 as greater potency in that assay.

These data come from US20230143612A1 (Arbutus Biopharma Corporation, priority 2020, published 2023).
